In PubChem BioAssay (NCI):
Where “and” joins values, the source holds several entries; their conditions need not be identical. Equal values may be shown once.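 All cell lines were grown in 96-well plates and treated with compound for 48 hours. Here, GI50 denotes the concentration required for 50% inhibition of growth. TGI: total growth inhibition.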 *1 amine or outer side, *2 acyl side, *3 side chain or, on linkers, in order; H or OH if unused. Where a SMILES comes first, the peptide text is derived from it. Bridges are numbered along the chain shown (N, C = ends). [ ]: non-standard residue; d: D form. The star is where a group is joined. Phe(3,5-F2) = N[C@@H](Cc1cc(F)cc(F)c1)C(=O)O; Pro(4R-Me) = C[C@H]1CN[C@H](C(=O)O)C1; aThr = C[C@H](O)[C@H](N)C(=O)O; Pip = O=C(O)[C@@H]1CCCCN1; X10 = Fc1cc(C2CC2)ccc1N*; CO = O=C([*:1])[*:2]

Tested on: MDA-MB-468 breast
Test: NCI anticancer screen, dose series, 48 h

Compound | GI50 | TGI
CCN1/C(=C\c2cc[n+](CC)c3ccccc23)C=Cc2ccccc21 | 109 nM | 519 nM
FC(F)(F)c1cccc(Nc2nc(-c3ccccc3)nc3ncccc23)c1 | 2420 nM | 7710 nM
CN1CCCCC1CCN1c2ccccc2Sc2ccc(Cl)cc21 (stereo not given) | 1940 nM | 4440 nM
COc1cccc(C2c3cc4c(cc3OC(C)(N3CCCC3)C2C)OCO4)c1O (stereo not given) | 4660 nM | > 100000 nM
COC1/C=C/OC2(C)Oc3c(C)c(O)c4c(O)c(c(/C=N/Nc5ccc([N+](=O)[O-])cc5[N+](=O)[O-])c(O)c4c3C2=O)NC(=O)C(C)=C/C=C/C(C)C(O)C(C)C(O)C(C)C(OC(C)=O)C1C (stereo not given) | 1110 nM | 2860 nM
COc1cc2c(c(OC)c1OC)-c1ccc(NNC(N)=S)c(=O)cc1[C@@H](NC(C)=O)CC2 | 233 nM | –
OC1CSSC1Cn1cnc2c(Nc3ccc(OCc4cccc(F)c4)c(Cl)c3)ncnc21 (stereo not given) | 786 nM | 2120 nM
COC(=O)/C=C1\S/C(=N\NC(=O)c2cc3ccc2/C=C\c2ccc(cc2)/C=C\3)N(c2ccccc2)C1=O | 1840 nM | 3740 nM
CN(C)c1ccc(/C=C\C2=[N+](C)c3ccccc3C2(C)C)cc1 | 287 nM | 5080 nM
C[C@@H]1C[C@H]2C(=O)O[C@@H](C)[C@H](NC(=O)[C@H](Cc3cc(F)cc(F)c3)NC(=O)Nc3ccc(C4CC4)cc3F)C(=O)N3CCC[C@H]3C(=O)N3CCCC[C@H]3C(=O)N[C@@H](C)C(=O)N2C1 ({X10-CO}-[Phe(3,5-F2)][aThr]P[Pip]A[Pro(4R-Me)]; ester 2-C) | 25.7 nM | 187 nM
NS(=O)(=O)OC[C@@H]1C[C@@H](n2ccc3c(NC4CCc5ccccc54)ncnc32)C[C@@H]1O (stereo not given in full) | 1310 nM | 50200 nM
Cc1ccc(CN2CCC(C(=O)Nc3ccc(-c4cc5ccccc5[nH]4)cc3)CC2)o1 | 83400 nM | > 100000 nM
Cn1cc(C2=C(c3c4n(c5ccccc35)CCCCC4)C(=O)NC2=O)c2ccccc21 | 1170 nM | > 19900 nM
Cc1cc(-c2nc(C(=O)Nc3cc4oc(N5CCOCC5)nc4nc3N3CC[C@@H](O)C3)co2)ccn1 | 13300 nM | 64800 nM
Cc1ccnc2c1ccc1c(C)ccnc12 | 360 nM | 2720 nM
Cc1ccc(NC(=O)Nc2ccc(-c3cccnc3)cc2N2CCC(CO)CC2)cc1 | 2490 nM | 7120 nM
C=CC(=O)Nc1cc(Nc2ncc(C(=O)OC(C)C)c(-c3cn(C)c4ccccc34)n2)c(OC)cc1N(C)CCN(C)C | < 10 nM | 69 nM

Compound | GI50 | TGI
O=C(Nc1ccc(-n2ccc3c(NC(=O)c4ccccc4)nccc32)cc1)c1ccc(Cl)c(C(F)(F)F)c1 | 919 nM | 5650 nM
COc1ccc([C@H]2[C@H](O)C(=O)N2c2cc(OC)c(OC)c(OC)c2)cc1F | < 10 nM | > 100000 nM
COc1ccc2c(c1)sc1nc(-c3ccccc3)c(-c3cccc4ccccc34)n12 | 1470 nM | 5050 nM
Fc1[nH]nc2ccc([C@@H]3Nc4ccc5[nH]ncc5c4[C@H]4C5CCC(C5)[C@@H]34)cc12 (stereo not given in full) | 361 nM | 12000 nM
COc1cccc(-c2cc(-c3cccc(NS(C)(=O)=O)c3)nc(N)c2C#N)c1O | 421 nM | 4230 nM
C=CCO[C@H]1CO[C@H]2[C@@H]1OC[C@@H]2Oc1ccc(Nc2ccnc(Nc3ccc(O[C@H]4CO[C@H]5[C@@H]4OC[C@@H]5OCC=C)c(Cl)c3)n2)cc1Cl | 1620 nM | 3130 nM
OCc1cc2ccccc2c2c3c(ccc12)OCO3 | 18900 nM | 65100 nM
C[C@@H](Oc1cc(-n2cnc3ccc(CN4CCN(C)CC4)cc32)sc1C(N)=O)c1ccccc1C(F)(F)F | < 10 nM and 4 nM | 1400 nM and 2870 nM
Nc1c(C(=O)c2cccc(CCS(N)(=O)=O)c2)cnn1-c1ccc(F)cc1 | > 17700 nM | > 25000 nM
Cc1nc2sccn2c1-c1csc(Nc2ccccc2Cl)n1 | 719 nM | 5840 nM
CC1CCc2nc[nH]c(=O)c21 (stereo not given) | > 100000 nM | > 100000 nM
COc1cc(/C=N\NC(=O)CN2CCN(c3cc4c(cc3F)c(=O)c(C(=O)N/N=C/c3cc(OC)c(OC)c(OC)c3)cn4C3CC3)CC2)cc(OC)c1OC | 221 nM | 535 nM
O=C1NC(=NCCc2cccc(F)c2)S/C1=C\c1ccc2ncccc2c1 | 1180 nM | > 20400 nM
O=C(Nc1ccc(F)cc1)Nc1ccc(Cl)c([N+](=O)[O-])c1 | 2150 nM | 7540 nM
Cc1ccc2c(C)c3c(ccc4ccccc43)c[n+]2c1 | 408 nM | 2240 nM
COc1cnc2c(c1)C(=O)c1c-2n(CCCN2CCOCC2)c(=O)c2cc(F)ccc12 | 195 nM | 656 nM
